Measurements: PMC5840727, “Cysteine peptidases of Eudiplozoon nipponicum: a broad repertoire of structurally assorted cathepsins L in contrast to the scarcity of cathepsins B in an invasive species of haematophagous monogenean of common carp” (Parasites & Vectors, 2018)
Where a SMILES comes first, the peptide text is derived from it. Where no end group is shown, it is not given here. The star is where a group is joined. AMC = Cc1cc(=O)oc2cc(N*)ccc12; Cbz = O=C(OCc1ccccc1)*

What was measured:
Assay type in all cases: biochemical
[1] = target: T1, yrEnCL3 (EnCL3, E. nipponicum cathepsin L3) (Eudiplozoon nipponicum, UniProt A0A0K1L960); experiment: fluorogenic peptidase inhibition assay (AMC release); settings: read-out: % remaining activity at 10 uM
T1 construct: Pichia pastoris X-33 (pPICZalpha B), His-tag; full transcript 368 residues

[2] = target: T2, yrEnCL1 (EnCL1, E. nipponicum cathepsin L1) (Eudiplozoon nipponicum, UniProt A0A0K1L8K1); experiment: as above; settings: read-out: % remaining activity at 10 uM
T2 construct: Expressed as pro-enzyme in Pichia pastoris X-33 (pPICZalpha B), His-tag, self-processed in medium to ~28 kDa partially processed form, partially purified; full transcript 317 residues

[3] = target: T1, yrEnCL3 (EnCL3, E. nipponicum cathepsin L3); experiment: fluorogenic AMC release; settings: 50 uM substrate, 2 mM DTT, citrate/phosphate buffer, pH optimum 6, 28 °C
[4] = target: T2, yrEnCL1 (EnCL1, E. nipponicum cathepsin L1); experiment: fluorogenic AMC release; settings: 50 uM substrate, 2 mM DTT, citrate/phosphate buffer, pH optimum 5.5, 28 °C; partially purified enzyme
[5] = target: T3, yrEnCB (EnCB, E. nipponicum cathepsin B) (Eudiplozoon nipponicum, UniProt A0A2P1FSY4); experiment: fluorogenic AMC release; settings: 50 uM substrate, 2 mM DTT, citrate/phosphate buffer, pH optimum 5, 28 °C
T3 construct: Pichia pastoris X-33 (pPICZalpha B), His-tag; self-processed, deglycosylated with endoglycosidase F1, ~29 kDa; full transcript 382 residues
T3 sequence (A0A2P1FSY4 entry or part of it): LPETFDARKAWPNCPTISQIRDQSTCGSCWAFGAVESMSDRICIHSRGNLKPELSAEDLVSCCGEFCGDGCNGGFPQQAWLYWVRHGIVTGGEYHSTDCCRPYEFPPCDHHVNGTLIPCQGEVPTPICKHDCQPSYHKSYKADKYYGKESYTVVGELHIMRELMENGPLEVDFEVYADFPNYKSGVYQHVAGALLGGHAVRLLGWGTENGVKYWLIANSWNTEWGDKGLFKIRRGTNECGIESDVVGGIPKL

T1 sequence (A0A0K1L960 entry or part of it): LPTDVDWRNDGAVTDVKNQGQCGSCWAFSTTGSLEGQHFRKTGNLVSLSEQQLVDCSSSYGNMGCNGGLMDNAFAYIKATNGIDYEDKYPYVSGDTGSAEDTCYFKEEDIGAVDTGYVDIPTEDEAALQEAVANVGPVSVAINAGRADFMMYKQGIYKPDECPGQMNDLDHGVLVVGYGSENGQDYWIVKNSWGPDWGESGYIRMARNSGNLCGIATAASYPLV
T2 sequence (A0A0K1L8K1 entry or part of it): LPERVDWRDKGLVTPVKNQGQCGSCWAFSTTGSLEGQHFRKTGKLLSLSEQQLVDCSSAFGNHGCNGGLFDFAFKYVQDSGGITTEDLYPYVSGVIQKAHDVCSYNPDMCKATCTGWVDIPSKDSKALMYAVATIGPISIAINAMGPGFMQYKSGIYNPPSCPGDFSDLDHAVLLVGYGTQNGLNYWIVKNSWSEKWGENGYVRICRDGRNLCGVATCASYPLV

Molecule | remaining activity at 10 µM [1] [%] | remaining activity at 10 µM [2] [%] | fluorogenic AMC release [3] | fluorogenic AMC release [4] | fluorogenic AMC release [5]
CCCNC(=O)[C@H]1O[C@@H]1C(=O)N[C@H](C(=O)N1CCC[C@H]1C(=O)O)[C@@H](C)CC [CA-074, N-[L-3-trans-propylcarbamoyloxirane-2-carbonyl]-Ile-Pro-OH] | 45 to 65 | ~70 |  |  | 
Cc1cc(=O)oc2cc(NC(=O)[C@H](CCCNC(=N)N)NC(=O)[C@H](CC(C)C)NC(=O)OCc3ccccc3)ccc12 [Z-Leu-Arg-AMC] |  |  | Both EnCLs efficiently hydrolysed the FR substrate, and to a lesser extent the LR | Both EnCLs efficiently hydrolysed the FR substrate, and to a lesser extent the LR | 
Cc1cc(=O)oc2cc(NC(=O)[C@H](CCCNC(=N)N)NC(=O)[C@H](Cc3ccccc3)NC(=O)OCc3ccccc3)ccc12 [Z-Phe-Arg-AMC] (Cbz-Phe-Arg-{AMC}) |  |  | Both EnCLs efficiently hydrolysed the FR substrate, and to a lesser extent the LR | Both EnCLs efficiently hydrolysed the FR substrate, and to a lesser extent the LR | The preferred substrate for yrEnCB was the FR, while RR was cleaved less efficiently
RKLLW-NH2 [iCL] | ~40 |  |  |  | 
